Measurements: PubChem BioAssay (NCI)
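The compound was tested at five concentrations on cells cultured in 96-well plates, with a 48-hour exposure period. At the GI50, growth is halved. TGI denotes the concentration required for complete inhibition of growth.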

Experiments:
Assay in all cases: growth of human tumour cells (NCI), 48 h
HOP-62 NSCLC = system: HOP-62 NSCLC
MOLT-4 leukemia = system: MOLT-4 leukemia
SNB-19 CNS = system: SNB-19 CNS
HL-60(TB) leukemia = system: HL-60(TB) leukemia
CCRF-CEM leukemia = system: CCRF-CEM leukemia
HOP-92 NSCLC = system: HOP-92 NSCLC
NCI-H226 lung = system: NCI-H226 lung
OVCAR-5 ovarian = system: OVCAR-5 ovarian
HCC-2998 colon = system: HCC-2998 colon
UACC-257 melanoma = system: UACC-257 melanoma
SK-MEL-2 melanoma = system: SK-MEL-2 melanoma
MDA-MB-231 breast = system: MDA-MB-231 breast
M14 melanoma = system: M14 melanoma
IGROV1 ovarian = system: IGROV1 ovarian
MCF7 breast = system: MCF7 breast
HCT-116 colon = system: HCT-116 colon
RXF 393 renal = system: RXF 393 renal
SN12C renal = system: SN12C renal
K-562 leukemia = system: K-562 leukemia
U251 CNS = system: U251 CNS
PC-3 prostate = system: PC-3 prostate
786-0 renal = system: 786-0 renal
HT29 colon = system: HT29 colon
LOX IMVI melanoma = system: LOX IMVI melanoma
MALME-3M melanoma = system: MALME-3M melanoma
DU-145 prostate = system: DU-145 prostate
SNB-75 CNS = system: SNB-75 CNS
NCI-H522 lung = system: NCI-H522 lung
T-47D breast = system: T-47D breast
UO-31 renal = system: UO-31 renal
HS 578T breast = system: HS 578T breast
COLO 205 colon = system: COLO 205 colon
SK-MEL-5 melanoma = system: SK-MEL-5 melanoma
OVCAR-8 ovarian = system: OVCAR-8 ovarian
A498 renal = system: A498 renal
UACC-62 melanoma = system: UACC-62 melanoma
SF-539 CNS = system: SF-539 CNS
SF-268 CNS = system: SF-268 CNS
RPMI-8226 leukemia = system: RPMI-8226 leukemia
NCI-H23 lung = system: NCI-H23 lung
SF-295 CNS = system: SF-295 CNS
SW-620 colon = system: SW-620 colon
OVCAR-3 ovarian = system: OVCAR-3 ovarian
CAKI-1 renal = system: CAKI-1 renal
SK-OV-3 ovarian = system: SK-OV-3 ovarian
BT-549 breast = system: BT-549 breast
NCI-H460 lung = system: NCI-H460 lung
KM12 colon = system: KM12 colon
SR leukemia = system: SR leukemia
NCI/ADR-RES ovarian = system: NCI/ADR-RES ovarian
A549 NSCLC = system: A549 NSCLC
ACHN renal = system: ACHN renal
OVCAR-4 ovarian = system: OVCAR-4 ovarian
HCT-15 colon = system: HCT-15 colon
MDA-MB-435 = system: MDA-MB-435
SK-MEL-28 melanoma = system: SK-MEL-28 melanoma

CCN(Cc1c(F)cccc1F)c1ccc(CO)c(Cl)c1 showed a GI50 (HOP-62 NSCLC) of 0.327 µM, a TGI (HOP-62 NSCLC) of 34.7 µM and a GI50 (MOLT-4 leukemia) of 22.1 µM. It also gave a TGI (MOLT-4 leukemia) of 71.7 µM, a GI50 (SNB-19 CNS) of 24.4 µM and a TGI (SNB-19 CNS) greater than 100 µM. It also gave a GI50 (HL-60(TB) leukemia) of 3.1 µM, a TGI (HL-60(TB) leukemia) of 39.4 µM and a GI50 (CCRF-CEM leukemia) of 25.7 µM. It also gave a TGI (CCRF-CEM leukemia) of 98.5 µM, a GI50 (HOP-92 NSCLC) of 0.162 µM and a TGI (HOP-92 NSCLC) of 0.988 µM. It also gave a GI50 (NCI-H226 lung) of 0.0318 µM, a TGI (NCI-H226 lung) of 0.126 µM and a GI50 (OVCAR-5 ovarian) of 0.0353 µM. The TGI (OVCAR-5 ovarian) was 0.147 µM, the GI50 (HCC-2998 colon) was 1.15 µM and the TGI (HCC-2998 colon) was 10.7 µM. For the same compound, the GI50 (UACC-257 melanoma) was 0.0389 µM, the TGI (UACC-257 melanoma) was 0.149 µM and the GI50 (SK-MEL-2 melanoma) was 14.6 µM. The TGI (SK-MEL-2 melanoma) was 31.8 µM, the GI50 (MDA-MB-231 breast) was 13 µM and the TGI (MDA-MB-231 breast) was 38.3 µM. The GI50 (M14 melanoma) was 19.4 µM, the TGI (M14 melanoma) was 48.1 µM and the GI50 (IGROV1 ovarian) was 0.0401 µM. It also gave a TGI (IGROV1 ovarian) of 0.193 µM, a GI50 (MCF7 breast) of 0.0488 µM and a TGI (MCF7 breast) of 18.4 µM. The GI50 (HCT-116 colon) was 0.0291 µM, the TGI (HCT-116 colon) was 12.8 µM and the GI50 (RXF 393 renal) was 1.14 µM. It also gave a TGI (RXF 393 renal) of 24.2 µM, a GI50 (SN12C renal) of 15.4 µM and a TGI (SN12C renal) of 58.5 µM. For the same compound, the GI50 (K-562 leukemia) was 0.209 µM, the TGI (K-562 leukemia) was 28.2 µM and the GI50 (U251 CNS) was 0.195 µM. For the same compound, the TGI (U251 CNS) was 32.5 µM, the GI50 (PC-3 prostate) was 12.6 µM and the TGI (PC-3 prostate) was 46.9 µM. The GI50 (786-0 renal) was 15.3 µM, the TGI (786-0 renal) was 45.6 µM and the GI50 (HT29 colon) was 0.747 µM. For the same compound, the TGI (HT29 colon) was 19.5 µM, the GI50 (LOX IMVI melanoma) was 17.4 µM and the TGI (LOX IMVI melanoma) was 32.4 µM. For the same compound, the GI50 (MALME-3M melanoma) was 17.5 µM, the TGI (MALME-3M melanoma) was 36.6 µM and the GI50 (DU-145 prostate) was 12.3 µM. It also gave a TGI (DU-145 prostate) of 47 µM, a GI50 (SNB-75 CNS) of 11 µM and a TGI (SNB-75 CNS) of 49.6 µM. The GI50 (NCI-H522 lung) was 15.1 µM, the TGI (NCI-H522 lung) was 38.8 µM and the GI50 (T-47D breast) was 0.0516 µM. For the same compound, the TGI (T-47D breast) was 0.288 µM, the GI50 (UO-31 renal) was 2.3 µM and the TGI (UO-31 renal) was 51.4 µM. The GI50 (HS 578T breast) was 20.4 µM, the TGI (HS 578T breast) was 77.4 µM and the GI50 (COLO 205 colon) was 0.387 µM. It also gave a TGI (COLO 205 colon) of 1.61 µM, a GI50 (SK-MEL-5 melanoma) of 13.5 µM and a TGI (SK-MEL-5 melanoma) of 26.7 µM. The GI50 (OVCAR-8 ovarian) was 4.15 µM, the TGI (OVCAR-8 ovarian) was 35.8 µM and the GI50 (A498 renal) was 0.0173 µM. For the same compound, the TGI (A498 renal) was 0.069 µM, the GI50 (UACC-62 melanoma) was 0.0517 µM and the TGI (UACC-62 melanoma) was 0.325 µM. The GI50 (SF-539 CNS) was 20.5 µM, the TGI (SF-539 CNS) was greater than 59.2 µM and the GI50 (SF-268 CNS) was 24.8 µM. It also gave a TGI (SF-268 CNS) greater than 77.3 µM, a GI50 (RPMI-8226 leukemia) of 1.1 µM and a TGI (RPMI-8226 leukemia) of 41.4 µM. It also gave a GI50 (NCI-H23 lung) of 15 µM, a TGI (NCI-H23 lung) of 57.5 µM and a GI50 (SF-295 CNS) of 0.108 µM. For the same compound, the TGI (SF-295 CNS) was 28 µM, the GI50 (SW-620 colon) was 0.139 µM and the TGI (SW-620 colon) was greater than 90.4 µM. It also gave a GI50 (OVCAR-3 ovarian) of 0.0634 µM, a TGI (OVCAR-3 ovarian) of 0.317 µM and a GI50 (CAKI-1 renal) of 0.167 µM. The TGI (CAKI-1 renal) was 1.77 µM, the GI50 (SK-OV-3 ovarian) was 1.65 µM and the TGI (SK-OV-3 ovarian) was 9.91 µM. For the same compound, the GI50 (BT-549 breast) was 16.5 µM, the TGI (BT-549 breast) was 41.4 µM and the GI50 (NCI-H460 lung) was 0.0663 µM. The TGI (NCI-H460 lung) was 0.612 µM, the GI50 (KM12 colon) was 11.4 µM and the TGI (KM12 colon) was 26.8 µM. It also gave a GI50 (SR leukemia) of 16.5 µM, a TGI (SR leukemia) of 49.2 µM and a GI50 (NCI/ADR-RES ovarian) of 6.86 µM. The TGI (NCI/ADR-RES ovarian) was 43.2 µM, the GI50 (A549 NSCLC) was 0.445 µM and the TGI (A549 NSCLC) was 10.7 µM. The GI50 (ACHN renal) was 20.8 µM, the TGI (ACHN renal) was greater than 74.5 µM and the GI50 (OVCAR-4 ovarian) was 0.0429 µM. The TGI (OVCAR-4 ovarian) was 0.319 µM, the GI50 (HCT-15 colon) was 9.04 µM and the TGI (HCT-15 colon) was 48.8 µM. For the same compound, the GI50 (MDA-MB-435) was 14.8 µM, the TGI (MDA-MB-435) was 40.9 µM and the GI50 (SK-MEL-28 melanoma) was 19.1 µM. For the same compound, the TGI (SK-MEL-28 melanoma) was 52.6 µM.
